In patent US12109184B2, “Personalized methods of treating cancer” (CANCER RESEARCH TECHNOLOGY LIMITED, priority 2020, dated 2024):
Entries after “also recorded” stand apart in the source; their conditions may differ.

What was measured:
Assay type in all cases: cell-based
[1] = tested on: breast, colorectal and pancreatic cancer cell lines; test: Cell counting in complete or cysteine-free medium, cell lines not given; details: supplementation during cysteine starvation
[2] = tested on: MDA-MB-231, PANC-1, and MIAPaCa-2 cells; test: CellROX assay on live cells, starvation-sensitive cell lines; details: cysteine starved, MTAP deleted cells, 18 h
Method: Cells were seeded as described above. Live cells were stained with Hoechst 33342 nuclear stain for 20 min. The medium was removed, and cells were stained in 100 μl medium containing CellTracker™ Green CMFDA Dye and Hoechst stain for 40 min. The cells were then washed with PBS, and 300 μl of the relevant experimental medium was added for 1 hour. Then, CellROX® Deep Red was spiked into the medium, and the cells were incubated for 40 min. The medium was removed, the cells were washed with PBS, and new relevant experimental medium including CellROX was added. The cells were imaged using an Operetta automated microscope platform set to 37° C. in 5% CO2 every hour for 16-24 hours. I

[3] = tested on: MTAP-deleted HCT116 cells; test: Cell counting during cysteine starvation, MTAP-deleted HCT116; details: −Cys, low levels of methionine
[4] = tested on: MTAP-expressing HCT116 cells; test: Cell counting during cysteine starvation, MTAP-expressing HCT116; details: −Cys with or without methionine
Text: [NT] Successfully transfected cells were selected with puromycin and grown as clonal colonies. Clones were selected based initially on MTA efflux measured by liquid chromatography mass spectrometry (LC-MS). Clones with greatest MTA efflux were selected, and methylthioadenosine phosphorylase knockout (MTAP-KO) was then confirmed by western blot. MTAP-KO HCT116 cells were transfected with pCMV-Hygro-MTAP and pCMV-Hygro-negative control vector, selected using hygromycin B, and grown as clonal colonies. Clones were selected based initially on MTA efflux measured by LC-MS. Clones with low MTA efflux were selected, then MTAP re-expression was confirmed by western blot. […] DAPI-stained cell nuclei were detected via microscopy. For experiments using spermine oxidase (SMOX) and polyamine oxidase (PAOX) inhibitors or MTOB, cells were pre-treated with stated concentrations for 16 hours in complete medium. After pre-treatment, cells were washed in PBS, and treatment was continued in complete or cysteine-free medium for stated times. After treatment was finished, cells were fixed and stained as described above. For experiments using MTA, polyamines, GPX4 and CSE inhibitors, treatment started at the same time as cysteine starvation. For experiments involving hypoxic conditions, cells were seeded in normoxic conditions and allowed to adhere for 24 hours before control and cysteine starvation medium was added and cells were immediately transferred either to a humidified cell culture incubator set to 37° C. in 20% O2 (normoxia), or a hypoxia chamber set to 37° C. in 1% O2 (hypoxia) for the stated times. Cells were fixed immediately and stained as described above.

## CSCC[C@H](N)C(=O)O [methionine]
[1]
  rescue from cysteine starvation-induced cell death (summary in discussion): unable to provide rescue; also recorded: did not
[2]
  ROS levels (CellROX) in response to methionine concentration: increased in a dose-dependent manner
[3]
  effect of methionine on survival during cysteine starvation: inhibited the ability of MTAP deleted cells to survive
[4]
  effect of presence of methionine during cysteine starvation: advantageous
